Like-named read-outs stand apart in the source and are kept apart here.
Columns and labels:
[1] = Cell permeability of dissolved recoflavone; assay type: in vitro ADME; details: dissolved state, high degree of ionization
rabbit eyes = assay: Drug distribution in eye tissues after eye drop administration to rabbit eyes; assay type: in vivo; details: 3% eye drop administered to rabbit eyes (data not shown)
Text: It has a property with low solubility at low pH. As the pH increases, it is ionized and its solubility increases.

[2] = test system: human keratoconjunctival epithelial cells; details: cited from earlier work
Solubility in water = assay type: physicochemical; details: low solubility at low pH, increases with pH
[3] = cited from earlier work

For `COc1ccc(-c2cc(=O)c3c(OC)cc(OCC(=O)O)cc3o2)cc1OC` [recoflavone, 2-((2-(3,4-dimethoxyphenyl)-5-methoxy-4-oxo-4H-chromen-7-yl)oxy) acetic acid], the Cell permeability [1] is listed as “poor cell permeability”, the “Drug distribution in each tissue of eye with time” value (rabbit eyes) is listed as “rarely distributed in the tissues located inside the eye and mainly distributed in the surrounding tissues outside of the eye” and the “Thickness of the mucin layer” value ([2]; 100 μM solution of the active ingredient) is listed as “significantly increased”. The “Mucin proteins by Western blot analysis” value ([2]; Western blot) was “MUC5AC only had a tendency to increase”, the “Mucin expression MUC1, MUC4, MUC16 and MUC5AC by real-time PCR” value ([2]; real-time PCR) was “tendency to increase significantly for four hours and then decreased rapidly” and the Solubility in water (Solubility in water) was “practically insoluble in water”. For the same compound, the Hygroscopicity ([3]; form of a hydrate) was “stable without hygroscopicity” and the Hygroscopicity ([3]; form of an anhydride) was “has hygroscopicity”.
